Measured values published in ChEMBL document CHEMBL1201862, “PubChem BioAssay data set” (2004).
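Five compound concentrations were applied to cells in 96-well plates for 48 hours; endpoints were derived by simple linear interpolation of the resulting dose-response curve. Here, GI50 denotes the concentration required for 50% inhibition of growth.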 The source made the active and inactive calls. No stated cut-off is given here; in the data, active = GI50 up to about 1.1 µM and inactive = higher.

Legend:
Assay in all cases: DTP human tumour cell line panel, 48 h
[1] = test system: Malme-3M
[2] = test system: HT-29
[3] = test system: COLO 205
[4] = test system: CAKI-1
[5] = test system: SNB-75
[6] = test system: HCC 2998
[7] = test system: DU-145
[8] = test system: SF-295
[9] = test system: MDA-N
[10] = test system: TK-10
[11] = test system: NCI-H226
[12] = test system: LOX IMVI
[13] = test system: OVCAR-8
[14] = test system: K562
[15] = test system: SK-MEL-28
[16] = test system: HL-60
[17] = test system: OVCAR-5
[18] = test system: SF-539
[19] = test system: OVCAR-3

Structure (SMILES)	GI50 [1]	GI50 [2]	GI50 [3]	GI50 [4]	GI50 [5]	GI50 [6]	GI50 [7]	GI50 [8]	GI50 [9]	GI50 [10]	GI50 [11]	GI50 [12]	GI50 [13]	GI50 [14]	GI50 [15]	GI50 [16]	GI50 [17]	GI50 [18]	GI50 [19]
S=C1C(CCCOCc2ccccc2)C2CCCC23CC2(CCN13)OCCS2 (centres undefined)	> 10 µM (inactive)	> 10 µM (inactive)	> 10 µM (inactive)	> 10 µM (inactive)	> 10 µM (inactive)	> 10 µM (inactive)	> 10 µM (inactive)	> 10 µM (inactive)	> 10 µM (inactive)	> 10 µM (inactive)	> 10 µM (inactive)	> 10 µM (inactive)	> 10 µM (inactive)	> 10 µM (inactive)	> 10 µM (inactive)	> 10 µM (inactive)	> 10 µM (inactive)	> 10 µM (inactive)	> 10 µM (inactive)
CCOC(=O)/C=C/C1(CCOC(C)=O)CCCCC1	–	> 10 µM (inactive)	> 10 µM (inactive)	> 10 µM (inactive)	> 10 µM (inactive)	> 10 µM (inactive)	> 10 µM (inactive)	> 10 µM (inactive)	> 10 µM (inactive)	> 10 µM (inactive)	> 10 µM (inactive)	> 10 µM (inactive)	> 10 µM (inactive)	> 10 µM (inactive)	> 10 µM (inactive)	> 10 µM (inactive)	> 10 µM (inactive)	> 10 µM (inactive)	> 10 µM (inactive)
C[C@H]1C[C@H](C)c2ccccc2N(C)/C1=N\c1ccccc1	22.6 µM (inactive)	4.58 µM (inactive)	18.4 µM (inactive)	63.1 µM (inactive)	57.1 µM (inactive)	39.2 µM (inactive)	92 µM (inactive)	26.4 µM (inactive)	23.4 µM (inactive)	18.6 µM (inactive)	24.5 µM (inactive)	13.7 µM (inactive)	43.2 µM (inactive)	66.7 µM (inactive)	28.1 µM (inactive)	3.93 µM (inactive)	21.4 µM (inactive)	30.2 µM (inactive)	28.1 µM (inactive)
CC(=O)O[C@H]1CC[C@@]2(C)C(=CC[C@H]3C4=CC=C(C(C)=O)[C@@]4(C)CCC32)C1 (some centres undefined)	31.9 µM (inactive)	34.4 µM (inactive)	13.4 µM (inactive)	34.8 µM (inactive)	31.1 µM (inactive)	48.4 µM (inactive)	–	41 µM (inactive)	–	23.7 µM (inactive)	15 µM (inactive)	15.5 µM (inactive)	21.8 µM (inactive)	–	31 µM (inactive)	18 µM (inactive)	27.9 µM (inactive)	47 µM (inactive)	35.9 µM (inactive)
N#Cc1ccc(/C=C(/C(=O)c2ccccc2)c2ccccc2)cc1	12.6 µM (inactive)	8.18 µM (inactive)	19.6 µM (inactive)	14.2 µM (inactive)	27.2 µM (inactive)	16.9 µM (inactive)	–	9.55 µM (inactive)	–	24 µM (inactive)	16.7 µM (inactive)	2.75 µM (inactive)	6.41 µM (inactive)	2.6 µM (inactive)	15.8 µM (inactive)	2.67 µM (inactive)	18 µM (inactive)	21.2 µM (inactive)	16.1 µM (inactive)
COc1cc([C@@H]2c3cc4c(cc3[C@@H](/N=C/c3ccc(C(=O)O[C@@H](C(=O)O[C@H]5C[C@@]6(O)[C@@H](OC(=O)c7ccccc7)[C@@H]7[C@]8(OC(C)=O)CO[C@@H]8C[C@H](O)[C@@]7(C)C(=O)[C@H](OC(C)=O)C(=C5C)C6(C)C)[C@@H](NC(=O)c5ccccc5)c5ccccc5)cc3)[C@H]3COC(=O)[C@H]23)OCO4)cc(OC)c1O	–	0.0103 µM (active)	0.00891 µM (active)	6.31 µM (inactive)	< 0.005 µM (active)	0.0189 µM (active)	0.0261 µM (active)	0.171 µM (active)	0.00589 µM (active)	14.1 µM (inactive)	0.075 µM (active)	0.11 µM (active)	0.356 µM (active)	< 0.005 µM (active)	> 37.1 µM (inactive)	0.0149 µM (active)	0.0312 µM (active)	0.0141 µM (active)	0.00893 µM (active)
CC1(C)CC(=O)c2c(nc3c(ccc4ccccc43)c2-c2ccc(NC(=O)CCCCCCCCC(=O)Nc3ccc(-c4c5c(nc6c4ccc4ccccc46)CC(C)(C)CC5=O)cc3)cc2)C1	–	> 100 µM (inactive)	> 100 µM (inactive)	> 100 µM (inactive)	> 100 µM (inactive)	–	> 100 µM (inactive)	> 100 µM (inactive)	> 100 µM (inactive)	> 100 µM (inactive)	> 100 µM (inactive)	> 100 µM (inactive)	> 100 µM (inactive)	> 100 µM (inactive)	> 100 µM (inactive)	> 100 µM (inactive)	> 100 µM (inactive)	> 100 µM (inactive)	> 100 µM (inactive)
